# From patent US20060040894A1, “Compositions and methods using hyaluronic acid” (Angiotech International AG, priority 2004, published 2006)
# Test system: hyaluronidase
# Experiment: Hyaluronic Acid Viscometry Assay (degradation of HA by hyaluronidase)
# Assay type: biochemical
# From the text: The time for the sample to run through the viscometer was proportional to the viscosity of HA in the sample, which, in turn, was proportional to the molecular weight of the HA. As the enzyme (hyaluronidase) breaks down HA, the molecular weight of the polymer is reduced, the viscosity of the solution drops, and the solution runs through the viscometer more rapidly. Accordingly, shorter run times indicated lower molecular weights of HA (i.e., more breakdown of the HA by hyaluronidase), whereas longer times indicated higher molecular weights of HA (i.e., less breakdown of the HA by hyaluronidase).
# 0.07% HA solutions were prepared as follows: […] and […] pH 5.5 phosphate buffer (1 M) were combined in a scintillation vial. […] The solutions were allowed to dissolve overnight at 37° C. The pH's were checked and adjusted to 6.0. The viscosity of the solutions was analyzed by measuring the run time through an Ubbelohde PC1 viscometer. 50 μl of hyaluronidase (4.2 mg in 620 ul of water) was added per vial (final concentration approximately 6 units/ml) and incubated overnight with shaking. A viscometer reading was recorded for each solution after overnight incubation.
# [1] = 10 mg/ml, without enzyme (Example 4)
Compound,"Time (minutes) for sample to run through viscometer (0 mg/ml (so in the source), with enzyme (Example 4))","Degradation of HA (% viscosity relative to control t = 0) (10 mg/ml, with hyaluronidase (Example 2))",Time (minutes) for sample to run through viscometer [1],"Effect on hyaluronidase (viscosity of HA solution versus enzyme control) (Example 2, concentrations of Table 2)","Effect on hyaluronidase (viscosity of HA solution versus enzyme control) (Example 4, 10 mg/ml)","Time (minutes) for sample to run through viscometer (10 mg/ml, with enzyme (Example 4))"
CC(O)CO (centres unmarked) [Propylene glycol],5 min,65%,5.85 min,inhibit the action of hyaluronidase,inhibit the action of hyaluronidase,
SPAN 80,,,5.5 min,,inhibit the action of hyaluronidase,4.36 min
